# Read-outs that look alike come from different tables or passages of the source.
# How the values were obtained:
# [1] = Equilibrium (apparent) solubility of APR, shake flask method; assay type: physicochemical; conditions: for solubility at 24 h: thermodynamic from solid
# Procedure: The solubility of APR in various buffers, oils, surfactants, cosurfactants, cosolvents, and formulations was measured using the shake flask method. Briefly, an excess APR was added into a polypropylene tube that contains a medium. Tube mixed by a vortex (Daihan VM-10, South Korea) for 1 min to disperse APR. Mixtures were shaken at 100 rpm for 24 h at various temperatures in a thermostatically controlled shaking water bath (Nüve ST30, Turkey). Mixtures were then centrifuged at 13,500 rpm (12,225× g) for 15 min. The supernatant samples were suitably diluted with the mobile phase. Drug concentration was obtained via the validated HPLC method.
# Saturated SNEDDS were prepared by adding excess APR into blank preconcentrates and then precipitate the insoluble part of APR. Briefly, SNEDDS and excess APR mixtures were shaken at 100 rpm for 24 h at 37 °C in a shaking water bath. Mixtures were then centrifuged at 13,500 rpm (12,225× g) for 15 min. The supernatant was separated carefully to obtain saturated SNEDDS.
# [2] = cited from earlier work
# [3] = cited from earlier work; remark: listed apart in the source
structure (smiles),measurement,setting,value
"C[C@@H](O[C@H]1OCCN(Cc2nc(=O)[nH][nH]2)[C@H]1c1ccc(F)cc1)c1cc(C(F)(F)F)cc(C(F)(F)F)c1 [APR, 5-(((2R,3S)-2-((1R)-1-(3,5-bis(trifluoromethyl)phenyl)ethoxy)-3-(4-fluorophenyl)4-morpholinyl)methyl)-1,2-dihydro-3H-1,2,4-triazol-3-one]",solubility at 24 h,"[1]; 37 °C, organic solvent or mixture, Imwitor 988:Kolliphor RH40:Transcutol P (%) 20:60:20, 37 °C, read-out: APR solubility (loading capacity of SNEDDS preconcentrate)",21600 µg/mL
same,solubility at 24 h,"[1]; 37 °C, organic solvent or mixture, Imwitor 988:Kolliphor RH40:Transcutol P (%) 30:10:60, 37 °C, read-out: APR solubility (loading capacity of SNEDDS preconcentrate)",55300 µg/mL
same,solubility at 24 h,"[1]; Brij O10 (surfactant), 25 °C, aqueous with cosolvent or surfactant or cyclodextrin, surfactant Brij O10, 25 °C, read-out: APR solubility",9870 µg/mL
same,solubility at 24 h,"[1]; Capryol 90 (cosurfactant), 25 °C, organic solvent or mixture, cosurfactant Capryol 90, 25 °C, read-out: APR solubility",17000 µg/mL
same,solubility at 24 h,"[1]; Castor oil (oily excipient), 25 °C, oil or lipid, oily excipient Castor oil, 25 °C, read-out: APR solubility",2920 µg/mL
same,solubility at 24 h,"[1]; Cinnamon oil (oily excipient), 25 °C, oil or lipid, oily excipient Cinnamon oil, 25 °C, read-out: APR solubility",8470 µg/mL
same,solubility at 24 h,"[1]; Eucalyptus oil (oily excipient), 25 °C, oil or lipid, oily excipient Eucalyptus oil, 25 °C, read-out: APR solubility",6840 µg/mL
same,solubility at 24 h,"[1]; Glycerine (cosolvent), 25 °C, organic solvent or mixture, cosolvent Glycerine, 25 °C, read-out: APR solubility",13 µg/mL
same,solubility at 24 h,"[1]; Imwitor 988 (oily excipient), 25 °C, oil or lipid, oily excipient Imwitor 988, 25 °C, read-out: APR solubility",19800 µg/mL
same,solubility at 24 h,"[1]; Kolliphor ELP (surfactant), 25 °C, aqueous with cosolvent or surfactant or cyclodextrin, surfactant Kolliphor ELP, 25 °C, read-out: APR solubility",4230 µg/mL
same,solubility at 24 h,"[1]; Kolliphor HS15 (surfactant), 25 °C, aqueous with cosolvent or surfactant or cyclodextrin, surfactant Kolliphor HS15, 25 °C, read-out: APR solubility",7160 µg/mL
same,solubility at 24 h,"[1]; Kolliphor RH40 (surfactant), 25 °C, aqueous with cosolvent or surfactant or cyclodextrin, surfactant Kolliphor RH40, 25 °C, read-out: APR solubility",8980 µg/mL
same,solubility at 24 h,"[1]; Kollisolv GTA (oily excipient), 25 °C, oil or lipid, oily excipient Kollisolv GTA, 25 °C, read-out: APR solubility",3150 µg/mL
same,solubility at 24 h,"[1]; Kollisolv P124 (surfactant), 25 °C, aqueous with cosolvent or surfactant or cyclodextrin, surfactant Kollisolv P124, 25 °C, read-out: APR solubility",10700 µg/mL
same,solubility at 24 h,"[1]; Labrafac PG (oily excipient), 25 °C, oil or lipid, oily excipient Labrafac PG, 25 °C, read-out: APR solubility",427 µg/mL
same,solubility at 24 h,"[1]; Labrafac lipophile WL 1349 (oily excipient), 25 °C, oil or lipid, oily excipient Labrafac lipophile WL 1349, 25 °C, read-out: APR solubility",282 µg/mL
same,solubility at 24 h,"[1]; Labrafil M 1944 CS (surfactant), 25 °C, aqueous with cosolvent or surfactant or cyclodextrin, surfactant Labrafil M 1944 CS, 25 °C, read-out: APR solubility",3500 µg/mL
same,solubility at 24 h,"[1]; Labrafil M 2125 CS (surfactant), 25 °C, aqueous with cosolvent or surfactant or cyclodextrin, surfactant Labrafil M 2125 CS, 25 °C, read-out: APR solubility",2840 µg/mL
same,solubility at 24 h,"[1]; Labrasol (surfactant), 25 °C, aqueous with cosolvent or surfactant or cyclodextrin, surfactant Labrasol, 25 °C, read-out: APR solubility",15900 µg/mL
same,solubility at 24 h,"[1]; Lauroglycol 90 (cosurfactant), 25 °C, organic solvent or mixture, cosurfactant Lauroglycol 90, 25 °C, read-out: APR solubility",9320 µg/mL
same,solubility at 24 h,"[1]; Lauroglycol FCC (cosurfactant), 25 °C, organic solvent or mixture, cosurfactant Lauroglycol FCC, 25 °C, read-out: APR solubility",14200 µg/mL
same,solubility at 24 h,"[1]; Lemon oil (oily excipient), 25 °C, oil or lipid, oily excipient Lemon oil, 25 °C, read-out: APR solubility",3090 µg/mL
same,solubility at 24 h,"[1]; Maisine CC (oily excipient), 25 °C, oil or lipid, oily excipient Maisine CC, 25 °C, read-out: APR solubility",5360 µg/mL
same,solubility at 24 h,"[1]; Miglyol 812 (oily excipient), 25 °C, oil or lipid, oily excipient Miglyol 812, 25 °C, read-out: APR solubility",299 µg/mL
same,solubility at 24 h,"[1]; Miglyol 840 (oily excipient), 25 °C, oil or lipid, oily excipient Miglyol 840, 25 °C, read-out: APR solubility",1590 µg/mL
same,solubility at 24 h,"[1]; Oleic acid (oily excipient), 25 °C, oil or lipid, oily excipient Oleic acid, 25 °C, read-out: APR solubility",8480 µg/mL
same,solubility at 24 h,"[1]; Olive Yağı (oily excipient), 25 °C, oil or lipid, oily excipient Olive Yağı, 25 °C, read-out: APR solubility",181 µg/mL
same,solubility at 24 h,"[1]; PEG 200 (cosolvent), 25 °C, organic solvent or mixture, cosolvent PEG 200, 25 °C, read-out: APR solubility",11700 µg/mL
same,solubility at 24 h,"[1]; PEG 400 (cosolvent), 25 °C, organic solvent or mixture, cosolvent PEG 400, 25 °C, read-out: APR solubility",12000 µg/mL
same,solubility at 24 h,"[1]; Peceol (oily excipient), 25 °C, oil or lipid, oily excipient Peceol, 25 °C, read-out: APR solubility",7780 µg/mL
same,solubility at 24 h,"[1]; Peppermint oil (oily excipient), 25 °C, oil or lipid, oily excipient Peppermint oil, 25 °C, read-out: APR solubility",16600 µg/mL
same,solubility at 24 h,"[1]; Plurol Oleique CC 497 (cosurfactant), 25 °C, organic solvent or mixture, cosurfactant Plurol Oleique CC 497, 25 °C, read-out: APR solubility",4140 µg/mL
same,solubility at 24 h,"[1]; Propylene glycol (cosolvent), 25 °C, organic solvent or mixture, cosolvent Propylene glycol, 25 °C, read-out: APR solubility",8380 µg/mL
same,solubility at 24 h,"[1]; Sesame oil (oily excipient), 25 °C, oil or lipid, oily excipient Sesame oil, 25 °C, read-out: APR solubility",2230 µg/mL
same,solubility at 24 h,"[1]; Transcutol P (cosolvent), 25 °C, organic solvent or mixture, cosolvent Transcutol P, 25 °C, read-out: APR solubility",46500 µg/mL
same,solubility at 24 h,"[1]; Tween 20 (surfactant), 25 °C, aqueous with cosolvent or surfactant or cyclodextrin, surfactant Tween 20, 25 °C, read-out: APR solubility",7820 µg/mL
same,solubility at 24 h,"[1]; Tween 60 (surfactant), 25 °C, aqueous with cosolvent or surfactant or cyclodextrin, surfactant Tween 60, 25 °C, read-out: APR solubility",5040 µg/mL
same,solubility at 24 h,"[1]; Tween 80 (surfactant), 25 °C, aqueous with cosolvent or surfactant or cyclodextrin, surfactant Tween 80, 25 °C, read-out: APR solubility",2140 µg/mL
same,solubility at 24 h,"[1]; blank SNEDDS preconcentrate, 37 °C, organic solvent or mixture, Imwitor 988:Kolliphor RH40:Transcutol P (%) 10:30:60, 37 °C, read-out: APR solubility (loading capacity of SNEDDS preconcentrate)",43100 µg/mL
same,solubility at 24 h,"[1]; blank SNEDDS preconcentrate, 37 °C, organic solvent or mixture, Imwitor 988:Kolliphor RH40:Transcutol P (%) 10:40:50, 37 °C, read-out: APR solubility (loading capacity of SNEDDS preconcentrate)",34600 µg/mL
same,solubility at 24 h,"[1]; blank SNEDDS preconcentrate, 37 °C, organic solvent or mixture, Imwitor 988:Kolliphor RH40:Transcutol P (%) 10:50:40, 37 °C, read-out: APR solubility (loading capacity of SNEDDS preconcentrate)",26900 µg/mL
same,solubility at 24 h,"[1]; blank SNEDDS preconcentrate, 37 °C, organic solvent or mixture, Imwitor 988:Kolliphor RH40:Transcutol P (%) 10:60:30, 37 °C, read-out: APR solubility (loading capacity of SNEDDS preconcentrate)",22900 µg/mL
same,solubility at 24 h,"[1]; blank SNEDDS preconcentrate, 37 °C, organic solvent or mixture, Imwitor 988:Kolliphor RH40:Transcutol P (%) 10:70:20, 37 °C, read-out: APR solubility (loading capacity of SNEDDS preconcentrate)",18800 µg/mL
same,solubility at 24 h,"[1]; blank SNEDDS preconcentrate, 37 °C, organic solvent or mixture, Imwitor 988:Kolliphor RH40:Transcutol P (%) 10:80:10, 37 °C, read-out: APR solubility (loading capacity of SNEDDS preconcentrate)",15500 µg/mL
same,solubility at 24 h,"[1]; blank SNEDDS preconcentrate, 37 °C, organic solvent or mixture, Imwitor 988:Kolliphor RH40:Transcutol P (%) 20:10:70, 37 °C, read-out: APR solubility (loading capacity of SNEDDS preconcentrate)",51000 µg/mL
same,solubility at 24 h,"[1]; blank SNEDDS preconcentrate, 37 °C, organic solvent or mixture, Imwitor 988:Kolliphor RH40:Transcutol P (%) 20:40:40, 37 °C, read-out: APR solubility (loading capacity of SNEDDS preconcentrate)",29000 µg/mL
same,solubility at 24 h,"[1]; blank SNEDDS preconcentrate, 37 °C, organic solvent or mixture, Imwitor 988:Kolliphor RH40:Transcutol P (%) 20:50:30, 37 °C, read-out: APR solubility (loading capacity of SNEDDS preconcentrate)",23500 µg/mL
same,solubility at 24 h,"[1]; blank SNEDDS preconcentrate, 37 °C, organic solvent or mixture, Imwitor 988:Kolliphor RH40:Transcutol P (%) 20:70:10, 37 °C, read-out: APR solubility (loading capacity of SNEDDS preconcentrate)",15800 µg/mL
same,solubility at 24 h,"[1]; blank SNEDDS preconcentrate, 37 °C, organic solvent or mixture, Imwitor 988:Kolliphor RH40:Transcutol P (%) 30:20:50, 37 °C, read-out: APR solubility (loading capacity of SNEDDS preconcentrate)",45100 µg/mL
same,solubility at 24 h,"[1]; blank SNEDDS preconcentrate, 37 °C, organic solvent or mixture, Imwitor 988:Kolliphor RH40:Transcutol P (%) 30:60:10, 37 °C, read-out: APR solubility (loading capacity of SNEDDS preconcentrate)",17000 µg/mL
same,solubility at 24 h,"[1]; buffer pH 1.2, 37 °C, pH 1.2, simulated gastric fluid, buffer pH 1.2, 37 °C, 24 h, read-out: APR solubility",15.6 µg/mL
same,solubility at 24 h,"[1]; buffer pH 4.5, 37 °C, pH 4.5, aqueous buffer, buffer pH 4.5, 37 °C, 24 h, read-out: APR solubility",0.79 µg/mL
same,APR solubility,"[1]; buffer pH 6.8, 37 °C, 24 h",< LOD
same,APR solubility,"[1]; buffer pH 7.4, 37 °C, 24 h",< LOD
same,solubility in acetonitrile,[2]; acetonitrile,slightly soluble
same,logP,[2]; at neutral pH,4.8
same,permeability,[2],moderate
same,solubility in ethanol,[2]; ethanol,sparingly soluble
same,solubility in isopropyl acetate,[2]; isopropyl acetate,sparingly soluble
same,pKa,[2]; ref 5,9.7
same,Biopharmaceutical Classification System (BCS) class,[2]; ref 7,Class II
same,Biopharmaceutical Classification System (BCS) class,[2]; ref 8,Class IV
same,solubility in water,[2]; water,practically insoluble
same,mean oral bioavailability,[3]; 80 mg Emend capsule,67%
same,mean oral bioavailability,[3]; 125 mg Emend capsule,59%
same,time to maximum plasma concentration (Tmax),[3]; in vivo,4 h
same,time of mean peak plasma concentration,[3]; ref 14,approximately 4 h

# Source: PMC8621193, “In Vitro Evaluation of a Solid Supersaturated Self Nanoemulsifying Drug Delivery System (Super-SNEDDS) of Aprepitant for Enhanced Solubility” (Pharmaceuticals, 2021)
